Measurements published in US20240336583A1, “BENZO-RING-CONTAINING DERIVATIVE, AND PREPARATION METHOD THEREFOR AND USE THEREOF” (SHUJING BIOPHARMA CO., LTD, priority 2021, published 2024).

Experiments:
Format in all cases: in vivo
[1] = Mouse LD50 test (sequential method, tail vein bolus); settings: mouse, in vivo, intravenous; ICR mice, tail vein bolus within 10 seconds, sequential method, AOT425 software; read-out: LD50 (median lethal dose: dose required to cause 50% of the mice to die)
Method: (§1) The ED50 value and LD50 value of the compound of the present invention were measured using a sequential method. The TI (therapeutic index) of the drug was calculated. The animal symptoms in the experimental process were observed, and the drug effect, safety and side effects of the compound of the present invention were examined.
(§2) SPF grade ICR mice (Pizhou Oriental Breeding Co., Ltd.), 22-28 g, 15 mice/group. All mice received 3 days of quarantine and acclimation and were transferred from the feeding room to the laboratory for acclimation 1 h prior to the experiment.
(§3) The test compound was dissolved in 20% fat emulsion or purified water to prepare a 5 mg/ml drug liquid.
(§4) During the test, firstly a mouse was dosed at the tail vein, and the bolus injection was completed within 10 seconds. […] Finally, the AOT425 Statpm software was used to calculate the ED50 (median effective dose: the dose required to cause 50% of the mice to lose the righting reflex by the test) and LD50 (median lethal dose: the dose required to cause 50% of the mice to die by the test) values. The formula for TI (therapeutic index) was: TI=LD50/ED50.

ICR mice [2] = assay: as above; settings: TI=LD50/ED50, ICR mice, tail vein
Method: as §1, §2, §3, §4

ICR mice [3] = assay: Mouse righting reflex test (ED50, sequential method, tail vein bolus); settings: for Symptoms in test animals in ED50 test: after tail vein administration; for ED50 (median effective dose: dose required to cause 50% of the mice to lose the righting reflex) / ED50: tail vein bolus within 10 seconds, sequential method, AOT425 software; for ED50: Mus musculus, read-out: ED50 (median effective dose: dose required to cause 50% of the mice to lose the righting reflex)
Method: The ED50 value and LD50 value of the compound of the present invention were measured using a sequential method. The TI (therapeutic index) of the drug was calculated.
as §2, §3, §4

Row | Structure (SMILES) | LD50 [1] [mg/kg] | TI (therapeutic index) (ICR mice [2]) | Symptoms in test animals in ED50 test (ICR mice [3]) | ED50 (median effective dose: dose required to cause 50% of the mice to lose the righting reflex) (ICR mice [3]) [mg/kg] | ED50 (ICR mice [3]) [mg/kg]
1 | CC1COc2c(F)cc(C(C)C3CC3)c(O)c21 (single isomer, unassigned) [Example 4, 5-(1-cyclopropylethyl)-7-fluoro-3-methyl-2,3-dihydrobenzofuran-4-ol] | 62.5 | 7.0 | The animals' condition was stable after | 8.9 | –
2 | CC1COc2c(F)cc(C(C)C3CC3)c(OCOP(=O)([O-])[O-])c21.[Na+].[Na+] (single isomer, unassigned) [Example 10A1, sodium (5-(1-cyclopropyl)-7-fluoro-3-methyl-2,3-dihydrobenzofuran-4-yl) oxymethyl phosphate] | – | – | The animals' condition was stable after | – | –
3 | CC1COc2c(F)cc(C(C)C3CC3)c(O)c21 (single isomer, unassigned) [Example 11A1, 5-(1-cyclopropylethyl)-7-fluoro-3-methyl-2,3-dihydrobenzofuran-4-ol] | – | – | The animals' condition was stable after | 4.0 | –
4 | CC(C)c1cccc(C(C)C)c1OCOP(=O)(O)O [Fospropofol sodium, reference compound] | – | – | – | – | 112
5 | CC(C)c1cccc(C(C)C)c1O [Propofol, reference compound] | 55.9 | 4.3 | Some animals exhibited body twitching and | – | 12.9
